Laboratory results reported in patent publication US9150569B2, “Nitrogen-containing heterocyclic compound having inhibitory effect on production of kynurenine” (KYOWA HAKKO KIRIN CO., LTD., priority 2010, dated 2015).

The compounds below were run on production of kynurenine in KATO-III cells (assay: Inhibitory activity on the production of kynurenine (IFN-γ-treated KATO-III cells, kynurenine in the culture medium quantified by absorbance at 480 nm)). Conditions: test compound at 10 μmol/L, human gastric cancer cell line KATO-III, 96 hours, read-out: inhibition rate (production of kynurenine).
Format: cell-based
Procedure: This assay was performed by a modification of the method described in J. Biol. Chem., vol. 263, pp. 2041-2048 (1988). For culture of the human gastric cancer cell line KATO-III, RPMI 1640 (GIBCO, 11875) supplemented with 10 volt FBS (GIBCO, 10091-148, lot. 665285) was used. One μL of a test substance in a DMSO solution was diluted with 199 μL of the culture medium and placed in wells of a 384-well plate (10 μL/well). Next, IFN-γ (Sigma, 1-3265) was added to the culture medium to a concentration of 31.25 ng/mL, and KATO-III cells were suspended at 50,000 cells/mL in the culture medium. Forty μL of the suspension was added to each well (2,000 cells/well) and incubated under a 5% CO2 atmosphere at 37° C. for 96 hours. The final concentration of DMSO was limited to 0.1 volt or less so that DMSO itself may not affect the kynurenine concentration measured by this assay. After the incubation, 10 μL of a 30 w/vt aqueous trichloroacetic acid solution was added to each well, and incubation was performed at 65° C. for 30 minutes. The plate was centrifuged at 2,500×g for 5 minutes and 15μL of the supernatant in each well was transferred into another 384-well plate. To the transferred supernatant, 15 μL of a 2 w/vt solution of p-dimethylaminobenzaldehyde in acetic acid was added, incubation was performed at 65° C. for 20 minutes and the absorbance was measured at 480 nm.
Sample: the absorbance value of the well to which a DMSO solution containing a test substance was added and in which the cells were treated with IFN-γ.
Blank: the absorbance value of the well to which DMSO not containing a test substance was added and in which the cells were treated with IFN-γ.
Control: the absorbance value of the well to which DMSO not containing a test substance was added and in which the cells were not treated with IFN-γ.
In this assay, expression of IDO in KATO-III cells is induced by IFN-γ treatment and kynurenine in the culture medium is quantified. The kynurenine concentration in a culture medium is known to increase in proportion to the enzymatic activity of intracellular IDO (for example, J. Biol. Chem., vol. 263, pp. 2041-2048 ([…])). […] The production of kynurenine is known to be inhibited by IDO inhibitors (for example, J. Clin. Invest., vol. 117, No. 5, pp. 1147-1154 […]), and thus it is speculated that Compounds (I) also have an inhibitory effect on IDO.

Structure (SMILES)	inhibition at 10 µM [%]
COCCS(=O)(=O)Nc1nc2ccccc2nc1OC(c1ccc(-c2cnn(C)n2)nc1)C(F)(F)F (stereo not shown) [Compound 68A, 2-methoxy-N-(3-(2,2,2-trifluoro-1-(6-(2-methyl-2H-1,2,3-triazol-4-yl)pyridin-3-yl)ethoxy)quinoxalin-2-yl)ethanesulfonamide]	≥ 80
COCCS(=O)(=O)Nc1nc2ccccc2nc1OC(c1ccc(-n2ccnc2C)nc1)C(F)(F)F (stereo not shown) [Compound 69, 2-methoxy-N-(3-(2,2,2-trifluoro-1-(6-(2-methyl-1H-imidazol-1-yl)pyridin-3-yl)ethoxy)quinoxalin-2-yl)ethanesulfonamide]	≥ 80
CCCS(=O)(=O)Nc1nc2ccccc2nc1OC(c1cnc(C)n1C)C(F)(F)F (stereo not shown) [Compound 70, N-(3-(1-(1,2-dimethyl-1H-imidazol-5-yl)-2,2,2-trifluoroethoxy)quinoxalin-2-yl)propane-1-sulfonamide]	≥ 80
CCCS(=O)(=O)Nc1nc2ccccc2nc1OC(c1cnc(C(C)=O)s1)C(F)(F)F (stereo not shown) [Compound 71, N-(3-(1-(2-acetylthiazol-5-yl)-2,2,2-trifluoroethoxy)quinoxalin-2-yl)propane-1-sulfonamide]	≥ 80
COCCS(=O)(=O)Nc1nc2ccccc2nc1OC(c1ccnc(C(C)=O)c1)C(F)(F)F (stereo not shown) [Compound 72, N-(3-(1-(2-acetylpyridin-4-yl)-2,2,2-trifluoroethoxy)quinoxalin-2-yl)-2-methoxyethanesulfonamide]	≥ 80
COCCS(=O)(=O)Nc1nc2ccccc2nc1OC(c1ccc(-c2cnco2)nc1)C(F)(F)F (stereo not shown) [Compound 73, 2-methoxy-N-(3-(2,2,2-trifluoro-1-(6-(oxazol-5-yl)pyridin-3-yl)ethoxy)quinoxalin-2-yl)ethanesulfonamide]	≥ 80
COCCS(=O)(=O)Nc1nc2ccccc2nc1OC(c1cnc(C(C)=O)s1)C(F)(F)F (stereo not shown) [Compound 74, N-(3-(1-(2-acetylthiazol-5-yl)-2,2,2-trifluoroethoxy)quinoxalin-2-yl)-2-methoxyethanesulfonamide]	≥ 80
CCCS(=O)(=O)Nc1nc2cc(I)ccc2nc1OC(c1cccnc1)C(F)(F)F (stereo not shown) [Compound 77, N-(7-iodo-3-(2,2,2-trifluoro-1-(pyridin-3-yl)ethoxy)quinoxalin-2-yl)propane-1-sulfonamide]	≥ 80
CCCS(=O)(=O)Nc1nc2cc(C#N)ccc2nc1OC(c1cccnc1)C(F)(F)F (stereo not shown) [Compound 78, N-(7-cyano-3-(2,2,2-trifluoro-1-(pyridin-3-yl)ethoxy)quinoxalin-2-yl)propane-1-sulfonamide]	≥ 80
C#Cc1ccc2nc(OC(c3cccnc3)C(F)(F)F)c(NS(=O)(=O)CCC)nc2c1 (stereo not shown) [Compound 79, N-(7-ethynyl-3-(2,2,2-trifluoro-1-(pyridin-3-yl)ethoxy)quinoxalin-2-yl)propane-1-sulfonamide]	≥ 80
